# Results from patent publication US11498928B2, “Macrocyclic spiroethers as Mcl-1 inhibitors” (ASCENTAGE PHARMA (SUZHOU) CO., LTD., priority 2019, dated 2022).
# How the values were obtained:
# [1] = target: T1, Mcl-1 protein (residues 171-323) (Homo sapiens, UniProt Q07820); assay: Inhibition of Mcl-1 by fluorescence polarization (FP) competitive binding assay with FAM-Bid tracer; details: 2 nM FAM-Bid, 20 nM Mcl-1, 30 min
# T1 construct: Tag-free Mcl-1 protein (residues 171-323) was used in the FP assay
# Procedure, shortened: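 Ten-point compound titrations compete against 2 nM fluorescein-Bid for 20 nM Mcl-1 (171-323, untagged). Incubation 30 min RT in PBS buffer with BGG and Triton, 5% DMSO final. mP reduction fitted by sigmoidal nonlinear regression for IC50.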
# OPM-2 cells = assay: Cell viability assay (OPM-2 cells), CCK-8; type: cell-based; details: Homo sapiens, OPM-2, 24 h, 5% FBS
# Procedure, shortened: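 Viability read by CCK-8 absorbance (450 nm, 4 h reagent incubation) after 24 h compound exposure of 20000 OPM-2 cells per well at 37 °C. IC50 fitted by nonlinear regression on vehicle-normalized signal.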
# NCI-H929 cells = assay: Cell viability assay (NCI-H929 cells), CCK-8; type: cell-based; details: Homo sapiens, NCI-H929, 24 h, 5% FBS
# Procedure, shortened: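 Viability of NCI-H929 cells was measured using the Cell Counting Kit-8. After 24 hrs of compound exposure, 10 μL of CCK-8 solution per well was incubated for 1-4 hours, and absorbance was read at 450 nm on a BioTek Synergy 1MF. Readings were normalized to vehicle (DMSO) cells, and IC50 values were derived by nonlinear regression in GraphPad Prism 6.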
# T1 sequence (Q07820 171-323): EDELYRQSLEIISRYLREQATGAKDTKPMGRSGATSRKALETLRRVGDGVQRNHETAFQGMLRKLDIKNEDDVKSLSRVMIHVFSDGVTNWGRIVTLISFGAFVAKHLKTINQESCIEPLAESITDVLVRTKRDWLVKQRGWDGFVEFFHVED
IC50 [1] [nM],IC50 (NCI-H929 cells) [nM],Compound,IC50 (OPM-2 cells) [nM]
14,7.7,"CO[C@@]1(CN2CCN(C)C(=O)C2)C2=C[C@@H](C2)[C@H](C)[C@@H](C)S(=O)(=O)NC(=O)c2ccc3c(c2)N(C[C@@H]2CC[C@H]21)C[C@@]1(CCCc2c1ccc(Cl)c2F)CO3 [compound 39, (1S,11′R,12′S,13′R,16′R,16a′R,18a′R,E)-6-chloro-5-fluoro-16′-methoxy-11′,12′-dimethyl-16′-((4-methyl-3-oxopiperazin-1-yl)methyl)-3,4,12′,13′,16′,16a′,17′,18′,18a′,19′-decahydro-1′H,2H,3′H, 11′H-spiro[naphthalene-1,2′-[5,7]etheno[13,15]methanocyclobuta[i][1,4]oxazepino[3,4-f][1]thia[2,7]diazacyclohexadecin]-8′(9′H)-one 10′,10′-dioxide]",62
17,2.6,"CO[C@@]1(CN2C[C@@H](C)N(C)[C@@H](C)C2)C2=C[C@@H](C2)[C@H](C)[C@@H](C)S(=O)(=O)NC(=O)c2ccc3c(c2)N(C[C@@H]2CC[C@H]21)C[C@@]1(CCCc2c1ccc(Cl)c2F)CO3 [compound 40, (1S,11′R,12′S,13′R,16′R,16a′R,18a′R,E)-6-chloro-5-fluoro-16′-methoxy-11′,12′-dimethyl-16′-(((3S,5R)-3,4,5-trimethylpiperazin-1-yl)methyl)-3,4,12′,13′,16′,16a′,17′,18′,18a′,19′-decahydro-1′H,2H,3′H,11′H-spiro[naphthalene-1,2′-[5,7]etheno[13,15]methanocyclobuta[i][1,4]oxazepino[3,4-f][1]thia[2,7]diazacyclohexadecin]-8′(9′H)-one 10′,10′-dioxide]",55
26,190,"CO[C@@]1(CN2CCNCC2)C2=C[C@@H](C2)[C@H](C)[C@@H](C)S(=O)(=O)NC(=O)c2ccc3c(c2)N(C[C@@H]2CC[C@H]21)C[C@@]1(CCCc2c1ccc(Cl)c2F)CO3 [compound 41, (1S,11′R,12′S,13′R,16′R,16a′R,18a′R,E)-6-chloro-5-fluoro-16′-methoxy-11′,12′-dimethyl-16′-(piperazin-1-ylmethyl)-3,4,12′,13′,16′,16a′,17′,18′,18a′,19′-decahydro-1′H,2H,3′H, 11′H-spiro[naphthalene-1,2′-[5,7]etheno[13,15]methanocyclobuta[i][1,4]oxazepino[3,4-f][1]thia[2,7]diazacyclohexadecin]-8′(9′H)-one 10′,10′-dioxide]",156
13,51,"CO[C@@]1(CN2CCNC(=O)C2)C2=C[C@@H](C2)[C@H](C)[C@@H](C)S(=O)(=O)NC(=O)c2ccc3c(c2)N(C[C@@H]2CC[C@H]21)C[C@@]1(CCCc2c1ccc(Cl)c2F)CO3 [compound 42, (1S,11′R,12′S,13′R,16′R,16a′R,18a′R,E)-6-chloro-5-fluoro-16′-methoxy-11′,12′-dimethyl-16′-((3-oxopiperazin-1-yl)methyl)-3,4,12′,13′,16′,16a′,17′,18′,18a′,19′-decahydro-1′H,2H,3′H, 11′H-spiro[naphthalene-1,2′-[5,7]etheno[13,15]methanocyclobuta[i][1,4]oxazepino[3,4-f][1]thia[2,7]diazacyclohexadecin]-8′(9′H)-one 10′,10′-dioxide]",66
15,35,"CO[C@@]1(CN2C[C@@H](C)N[C@@H](C)C2)C2=C[C@@H](C2)[C@H](C)[C@@H](C)S(=O)(=O)NC(=O)c2ccc3c(c2)N(C[C@@H]2CC[C@H]21)C[C@@]1(CCCc2c1ccc(Cl)c2F)CO3 [compound 43, (1S,11′R,12′S,13′R,16′R,16a′R,18a′R,E)-6-chloro-16′-(((3S,5R)-3,5-dimethylpiperazin-1-yl)methyl)-5-fluoro-16′-methoxy-11′,12′-dimethyl-3,4,12′,13′,16′,16a′,17′,18′,18a′,19′-decahydro-1′H,2H,3′H,11′H-spiro[naphthalene-1,2′-[5,7]etheno[13,15]methanocyclobuta[i][1,4]oxazepino[3,4-f][1]thia[2,7]diazacyclohexadecin]-8′(9′H)-one 10′,10′-dioxide]",47
